Reference: ChEMBL document CHEMBL5465560, “Selectivity Literature for EUbOPEN Chemogenomic Library” (2024)

Key:
[1] = molecular target: T1, Gamma-aminobutyric acid receptor subunit alpha-1 (Homo sapiens) (UniProt P14867); assay: Selectivity interaction (GPCR panel (PDSP screen)) EUB0001079a GABRA1; conditions: at 10 µM
T1 sequence (whole entry): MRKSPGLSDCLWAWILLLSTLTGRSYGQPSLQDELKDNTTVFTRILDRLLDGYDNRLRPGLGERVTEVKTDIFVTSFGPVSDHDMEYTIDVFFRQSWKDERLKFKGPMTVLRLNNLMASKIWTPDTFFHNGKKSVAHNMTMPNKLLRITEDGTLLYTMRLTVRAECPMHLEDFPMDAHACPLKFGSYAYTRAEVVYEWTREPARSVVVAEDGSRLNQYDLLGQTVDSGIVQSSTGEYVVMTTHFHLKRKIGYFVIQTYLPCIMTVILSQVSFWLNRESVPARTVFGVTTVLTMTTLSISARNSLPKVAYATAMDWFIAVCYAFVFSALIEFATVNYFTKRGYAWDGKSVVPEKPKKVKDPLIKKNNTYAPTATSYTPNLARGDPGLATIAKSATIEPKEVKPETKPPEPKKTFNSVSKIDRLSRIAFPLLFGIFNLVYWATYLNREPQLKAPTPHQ

[2] = molecular target: T2, Ephrin type-B receptor 6 (Homo sapiens) (UniProt O15197); assay: Selectivity interaction (KinomeScan (DiscoverX)) EUB0000666a EPHB6; conditions: at 10 µM
T2 sequence (whole entry): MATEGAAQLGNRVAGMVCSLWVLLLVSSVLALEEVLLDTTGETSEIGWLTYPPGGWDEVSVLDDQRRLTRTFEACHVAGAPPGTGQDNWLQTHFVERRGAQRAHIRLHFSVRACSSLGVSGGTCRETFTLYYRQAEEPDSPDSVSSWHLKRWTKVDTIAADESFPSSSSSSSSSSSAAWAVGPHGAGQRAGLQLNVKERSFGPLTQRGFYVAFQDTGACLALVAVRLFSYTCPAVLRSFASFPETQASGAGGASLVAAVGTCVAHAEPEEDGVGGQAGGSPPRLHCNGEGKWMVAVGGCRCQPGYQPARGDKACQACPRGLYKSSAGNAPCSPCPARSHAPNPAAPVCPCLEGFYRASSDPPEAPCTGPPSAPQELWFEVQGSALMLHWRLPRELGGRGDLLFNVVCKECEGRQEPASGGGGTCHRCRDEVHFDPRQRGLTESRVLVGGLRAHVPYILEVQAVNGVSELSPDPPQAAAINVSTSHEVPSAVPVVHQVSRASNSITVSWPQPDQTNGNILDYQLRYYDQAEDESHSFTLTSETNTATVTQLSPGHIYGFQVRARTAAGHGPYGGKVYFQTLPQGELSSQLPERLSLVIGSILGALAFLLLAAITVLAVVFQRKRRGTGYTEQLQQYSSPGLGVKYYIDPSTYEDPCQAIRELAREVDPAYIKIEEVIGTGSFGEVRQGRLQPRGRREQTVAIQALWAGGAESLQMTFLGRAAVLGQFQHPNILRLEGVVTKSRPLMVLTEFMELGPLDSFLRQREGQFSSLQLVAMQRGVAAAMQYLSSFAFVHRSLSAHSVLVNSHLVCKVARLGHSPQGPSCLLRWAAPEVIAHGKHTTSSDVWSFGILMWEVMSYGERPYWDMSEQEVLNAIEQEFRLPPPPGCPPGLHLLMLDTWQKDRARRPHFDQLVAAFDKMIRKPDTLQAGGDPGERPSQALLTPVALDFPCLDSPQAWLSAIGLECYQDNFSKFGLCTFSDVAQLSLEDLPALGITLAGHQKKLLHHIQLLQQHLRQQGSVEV

[3] = molecular target: T3, Serine/threonine-protein kinase RIO3 (Homo sapiens) (UniProt O14730); assay: Selectivity interaction (KinomeScan (DiscoverX)) EUB0001049a RIOK3; conditions: at 1 µM
T3 sequence (whole entry): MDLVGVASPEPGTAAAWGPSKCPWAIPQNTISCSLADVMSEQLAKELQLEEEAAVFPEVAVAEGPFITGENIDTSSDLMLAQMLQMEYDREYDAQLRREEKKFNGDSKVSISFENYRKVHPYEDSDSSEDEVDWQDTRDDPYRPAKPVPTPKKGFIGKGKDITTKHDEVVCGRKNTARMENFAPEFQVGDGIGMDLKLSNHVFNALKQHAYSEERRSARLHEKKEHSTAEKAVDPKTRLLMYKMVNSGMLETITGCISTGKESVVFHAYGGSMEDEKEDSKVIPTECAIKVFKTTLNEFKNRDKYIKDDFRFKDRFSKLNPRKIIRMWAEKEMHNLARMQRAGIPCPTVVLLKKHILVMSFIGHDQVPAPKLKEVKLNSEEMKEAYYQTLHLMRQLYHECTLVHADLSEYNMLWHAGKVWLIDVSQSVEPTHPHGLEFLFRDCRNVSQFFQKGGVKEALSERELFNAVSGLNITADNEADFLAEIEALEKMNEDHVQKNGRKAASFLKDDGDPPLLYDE

[4] = molecular target: T4, TGF-beta receptor type-1 (Homo sapiens) (UniProt P36897); assay: Selectivity interaction (KinomeScan (DiscoverX)) EUB0000655a TGFBR1; conditions: at 10 µM
T4 sequence (whole entry): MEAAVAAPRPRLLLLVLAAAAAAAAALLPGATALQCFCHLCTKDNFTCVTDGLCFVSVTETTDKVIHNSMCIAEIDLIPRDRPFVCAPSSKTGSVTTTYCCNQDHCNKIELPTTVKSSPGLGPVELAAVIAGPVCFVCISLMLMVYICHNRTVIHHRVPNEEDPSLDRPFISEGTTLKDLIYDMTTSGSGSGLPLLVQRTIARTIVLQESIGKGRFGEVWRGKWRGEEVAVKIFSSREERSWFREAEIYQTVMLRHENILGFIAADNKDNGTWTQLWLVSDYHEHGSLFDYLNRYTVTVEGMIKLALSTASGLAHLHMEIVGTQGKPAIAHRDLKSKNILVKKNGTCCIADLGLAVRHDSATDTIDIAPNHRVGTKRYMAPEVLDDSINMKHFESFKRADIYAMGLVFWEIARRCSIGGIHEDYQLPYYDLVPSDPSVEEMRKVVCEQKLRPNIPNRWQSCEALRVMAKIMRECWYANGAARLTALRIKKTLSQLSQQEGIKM

SMILES: Nc1cnc(N2CCc3cc(S(=O)(=O)Nc4c(F)cc(Cl)cc4F)cc(N4CCCC4=O)c32)nc1 [TP-020n]
- % of inhibition [1]: -1.96%

SMILES: O=C(NOC[C@H](O)CO)c1ccc(F)c(F)c1Nc1ccc(I)cc1F
- % of control [2]: 87%

SMILES: COc1cc(Nc2nc(C)cc(-c3cnn4nc(OC)ccc34)n2)cc(C(F)(F)F)c1
- % of control [3]: 86%

SMILES: CN(C)CCOc1ccc(-c2nc(-c3ccncc3)c(-c3ccc4c(c3)CC/C4=N\O)[nH]2)cc1
- % of control [4]: 17%
